Laboratory results taken from article PMC9136306 (The Journal of General Physiology, 2022).
Where “and” joins values, the source holds several entries; their conditions need not be identical. Equal values may be shown once.

Tests used:
human α7-AChR = human α7-AChR (Homo sapiens, UniProt P36544); test: cell-based; format: binding; conditions: for IC50: Unlabeled-ligand half-competition concentration
[1] = biological target: Human–C. elegans α7-AChR–β-GluCl ECD–TMD chimera (UniProt P36544+Q17328); test: cell-based; format: binding
Sequence of Human–C. elegans α7-AChR–β-GluCl ECD–TMD chimera (P36544 whole entry, looked up, change not shown, the tested form may be a part): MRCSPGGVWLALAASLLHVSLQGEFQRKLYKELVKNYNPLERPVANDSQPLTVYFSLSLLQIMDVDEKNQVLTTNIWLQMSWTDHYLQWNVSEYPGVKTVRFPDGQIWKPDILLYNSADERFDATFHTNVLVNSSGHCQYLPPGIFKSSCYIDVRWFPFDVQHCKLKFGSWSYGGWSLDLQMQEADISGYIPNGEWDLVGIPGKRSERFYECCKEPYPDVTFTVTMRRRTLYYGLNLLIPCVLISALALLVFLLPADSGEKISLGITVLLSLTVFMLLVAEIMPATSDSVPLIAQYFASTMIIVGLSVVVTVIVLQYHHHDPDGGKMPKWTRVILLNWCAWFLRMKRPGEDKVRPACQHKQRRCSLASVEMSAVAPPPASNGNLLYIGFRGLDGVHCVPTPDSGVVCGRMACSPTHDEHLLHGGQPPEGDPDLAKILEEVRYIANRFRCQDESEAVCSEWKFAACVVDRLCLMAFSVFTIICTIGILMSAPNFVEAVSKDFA
Sequence of Human–C. elegans α7-AChR–β-GluCl ECD–TMD chimera (Q17328 whole entry, looked up, change not shown, the tested form may be a part): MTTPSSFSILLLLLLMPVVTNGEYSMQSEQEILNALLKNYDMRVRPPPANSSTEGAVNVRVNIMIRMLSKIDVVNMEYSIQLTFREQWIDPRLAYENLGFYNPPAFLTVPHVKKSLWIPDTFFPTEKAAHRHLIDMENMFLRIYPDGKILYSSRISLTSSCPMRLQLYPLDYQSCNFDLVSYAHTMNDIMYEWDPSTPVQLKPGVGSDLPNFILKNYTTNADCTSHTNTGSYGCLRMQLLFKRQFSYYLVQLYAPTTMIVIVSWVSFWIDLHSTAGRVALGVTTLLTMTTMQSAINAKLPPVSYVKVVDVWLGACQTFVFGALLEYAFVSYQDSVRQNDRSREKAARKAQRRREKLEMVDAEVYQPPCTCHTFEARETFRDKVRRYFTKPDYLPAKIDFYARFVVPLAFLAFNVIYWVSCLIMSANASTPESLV

[2] = biological target: Chicken–C. elegans α7-AChR–β-GluCl ECD–TMD chimera (UniProt P22770+Q17328); test: cell-based; format: binding
Sequence of Chicken–C. elegans α7-AChR–β-GluCl ECD–TMD chimera (P22770 whole entry, looked up, stated change not applied, the tested form may be a part): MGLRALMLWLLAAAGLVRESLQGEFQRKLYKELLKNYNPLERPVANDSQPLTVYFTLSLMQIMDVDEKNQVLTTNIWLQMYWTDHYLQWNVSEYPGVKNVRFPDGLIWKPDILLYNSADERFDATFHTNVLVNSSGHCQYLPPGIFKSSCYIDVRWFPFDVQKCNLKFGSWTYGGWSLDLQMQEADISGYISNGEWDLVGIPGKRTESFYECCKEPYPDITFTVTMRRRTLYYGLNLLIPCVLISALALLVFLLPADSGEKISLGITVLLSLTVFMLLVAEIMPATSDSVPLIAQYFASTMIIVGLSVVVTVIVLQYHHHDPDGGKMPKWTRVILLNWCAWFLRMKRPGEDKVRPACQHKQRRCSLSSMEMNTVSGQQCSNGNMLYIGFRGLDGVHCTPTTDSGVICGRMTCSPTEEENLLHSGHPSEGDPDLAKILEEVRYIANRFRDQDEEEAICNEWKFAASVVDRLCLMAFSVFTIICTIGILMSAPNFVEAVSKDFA
Sequence of Chicken–C. elegans α7-AChR–β-GluCl ECD–TMD chimera (Q17328 whole entry, looked up, stated change not applied, the tested form may be a part): as the sequence (Q17328 whole entry, looked up, change not shown, the tested form may be a part) above

[3] = biological target: T1, Human–C. elegans α7-AChR–β-GluCl chimera S56T + S172T (Homo sapiens, UniProt P36544, S172T/S56T)
T1 sequence (Q17328 245-434): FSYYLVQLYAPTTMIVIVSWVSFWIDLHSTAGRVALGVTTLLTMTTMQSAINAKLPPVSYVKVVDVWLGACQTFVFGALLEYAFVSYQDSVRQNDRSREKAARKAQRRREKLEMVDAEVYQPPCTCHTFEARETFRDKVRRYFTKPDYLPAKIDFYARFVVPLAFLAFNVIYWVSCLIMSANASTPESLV
T1 sequence (P36544 23-230 S56T/S172T): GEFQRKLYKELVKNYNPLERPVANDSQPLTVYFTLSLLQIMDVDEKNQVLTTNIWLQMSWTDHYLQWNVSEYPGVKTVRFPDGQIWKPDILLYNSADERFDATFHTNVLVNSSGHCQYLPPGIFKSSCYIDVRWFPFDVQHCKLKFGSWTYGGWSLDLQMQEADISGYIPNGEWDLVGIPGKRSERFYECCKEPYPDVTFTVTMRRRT

[4] = biological target: T1, Human–C. elegans α7-AChR–β-GluCl chimera S56T + S172T; test: biochemical; conditions: Unlabeled-ligand half-competition concentration

Sequence of human α7-AChR (P36544 23-502): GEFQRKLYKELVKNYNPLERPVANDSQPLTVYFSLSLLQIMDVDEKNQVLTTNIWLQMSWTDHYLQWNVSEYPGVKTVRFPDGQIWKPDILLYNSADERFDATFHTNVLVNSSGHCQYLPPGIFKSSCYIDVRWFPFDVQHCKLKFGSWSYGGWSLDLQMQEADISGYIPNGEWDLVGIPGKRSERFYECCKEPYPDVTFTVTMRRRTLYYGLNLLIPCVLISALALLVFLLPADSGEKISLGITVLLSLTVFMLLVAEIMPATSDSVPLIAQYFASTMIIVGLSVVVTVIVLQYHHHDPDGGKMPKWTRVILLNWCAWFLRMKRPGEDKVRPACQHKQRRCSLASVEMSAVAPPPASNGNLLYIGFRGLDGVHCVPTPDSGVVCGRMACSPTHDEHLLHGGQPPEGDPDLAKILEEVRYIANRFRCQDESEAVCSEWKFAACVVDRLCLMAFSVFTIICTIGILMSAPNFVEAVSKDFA

Row | Structure (SMILES) | Unlabeled-ligand nH (Hill coefficient, competition) (human α7-AChR) | IC50 (human α7-AChR) [nM] | Unlabeled-ligand nH (Hill coefficient, competition) [1] | IC50 ([1]; Unlabeled-ligand half-competition concentration) | IC50 [2] [nM] | Unlabeled-ligand nH (Hill coefficient, competition) [2] | difference between closed-state affinities of the chicken and human α7-AChR ECDs [2] [fold] | Unlabeled-ligand nH (Hill coefficient, competition) [3] | IC50 [4] | Hill coefficient, individual curve fitted separately (human α7-AChR)
1 | C[N+](C)(C)CCO [Choline, choline] | 1.28 ± 0.08 | 204000 ± 16000 | – | – | – | – | – | – | – | –
2 | CCN1C[C@]2(COC(=O)c3ccccc3N3C(=O)C[C@H](C)C3=O)CC[C@H](OC)[C@@]34[C@@H]5C[C@H]6[C@H](OC)[C@@H]5[C@](O)(C[C@@H]6OC)[C@@](O)([C@@H](OC)[C@H]23)[C@@H]14 [MLA, methyllycaconitine] | 0.95 ± 0.05 | 88.9 ± 8.54 | 1.01 ± 0.05 | 68 nM and 68.3 nM | 4.9 ± 0.52 | 0.990 ± 0.07 | ~14 | 1.04 ± 0.08 | 32 nM and 32.5 nM | –
3 | CN1CCC[C@H]1c1cccnc1 [Nicotine, nicotine] | 1.41 ± 0.06 | – | 1.08 ± 0.06 | – | 3680 ± 110 | 1.80 ± 0.07 | – | – | – | 1.50 ± 0.001 and 1.28 ± 0.001 and 1.42 ± 0.13
